# According to patent US6087375A, “Methods of treating or preventing thromboses” (priority 1999, dated 2000):
# Experiments:
# Assay type in all cases: binding
# [1] = system: rabbit erythrocyte membrane and cytosolic proteins; experiment: Immunoblotting and ELISA of rabbit erythrocyte ghost and cytosol fractions after conjugation
# Description: Material and Methods: Rabbit erythrocytes were conjugated with the Argatroban-C6 NHS ester compound (compound YL-015-35). To do so, rabbit erythrocytes were isolated from fresh, citrated blood. In brief, an aliquot of blood was centrifuged for 5 minutes at 1800 rpm (Sorvall RC-5B, SH-3000 rotor). The buffy coat was pipetted off the top layer of the cell pellet and the remaining erythrocytes were washed four times with PBS, pH 7.4. Before the last wash, an aliquot of cells was removed for counting. The washed erythrocytes were resuspended at a density of 1×10^9 cells/mL. The total volume of cells labeled per sample was 3 mL. […] After the labeling reaction, the cells were centrifuged 4 minutes at 1800 rpm and the supernatant was discarded. The cells were resuspended in 10 ml of 0.5% DMSO/PBS and pelleted. The cells were washed one more time with 10 ml of PBS.
# To quench any remaining reactive esters, the cells were then resuspended in 6 mg/mL BSA/PBS (Sigma, A-2934, lot 93HO291) and gently agitated at room temperature for 30 minutes. After quenching, the cells were washed five times with PBS. Cell yields were determined by cell counting.
# After conjugation, the cells were hypotonically lysed and the ensuing membrane (ghost) and cytosol fractions were assayed by immunoblotting and ELISA. Specifically, conjugated erythrocyte pellets were chilled on ice for 5 minutes. Cells were then lysed on ice with 12 ml of ice-cold 5 mM phosphate buffer, pH 8.0 (PB) containing 1 mM Pefabloc and 40 μM leupeptin. Lysates were briefly vortexed and then centrifuged for 20 minutes at 4° C. at 15,000 rpm (SS-34, Sorvall RC-5B). The supernatant (hemolysate) was pipetted off the pellet, labeled and stored at 4° C. The pellets (ghosts) were washed four times with 12 ml of cold PBS and centrifuged as above. The protein content of the ghosts and hemolysates was determined by using the Micro BCA kit (Pierce; catalog no. 23231). Cell fractions were stored at -80° C.
# Samples were then solubilized in 2×reducing cocktail (5% SDS, 50% glycerol, 0.5 M 2-mercaptoethanol in 0.25 M Tris-HCI, pH 6.8). […]
# [2] = biological target: rabbit serum albumin (RSA) (Oryctolagus cuniculus, UniProt P49065); experiment: Mass spectrometric analysis of conjugation to RSA (HPLC/ESIMS, MALDI-TOFMS); details: for average argatroban derivative molecules added per RSA molecule / range of argatroban derivative molecules added per RSA molecule: MALDI-MS
# Description: (§1) All samples were analyzed using a high performance liquid chromatograph (HPLC) coupled in-line to an electrospray ionization (ESI) mass spectrometer (MS) which is termed HPLC/ESIMS. Some samples were also analyzed using a matrix-assisted laser desorption ionization (MALDI) time-of-flight (TOF) mass spectrometer which is termed (MALDI-TOFMS).
# (§2) Samples for HPLC/ESIMS were either prepared as duplicate reaction samples or were part of the same reaction samples which were used in the ELISA assays described below. These samples were injected directly only the HPLC/ESIMS without any manipulation other than dilution with water, where the PBS, DMSO, and unreacted derivative molecules are separated from the protein-argatroban derivative molecule conjugate. Samples for MALDI-MS were first HPLC-purified and mixed 1:1 directly on the stainless steel analysis plate with a matrix of 10 mg/ml sinnapinic acid in 50% acetonitrile/50% water. The mixture was then dried with a gentle flow of air to allow for crystallization and inserted into the instrument for laser ionization.
# (§3) The HPLC is a Hewlett Packard 1090 Series II liquid chromatogram with a diode array detector. The column used for separation is a Brownlee aquapore OD-300 reversed phase C18 column, 1 mm×10 cm, 300 Å pore size, 7 μm particle diameter. The mass spectrometer to which the HPLC is connected using fused Silica capillary tubing is a Sciex API-300 triple quadrupole mass spectrometer with an ionspray source to allow for atmospheric pressure ionization of a liquid flowing continuously into the instrument. The MALDI-TOFMS is a Perceptive Biosystems Voyager Elite DE instrument run in the linear mode.
# The conjugate was prepared according to the following protocol. […] Sham samples consist of the RSA incubated for the same length of time at RT in 2% DMSO in PBS. Each of the samples was then concentrated to a final volume of 1.5 mL using Amicon Centricon 30 filtration/concentration devices. The concentrated samples were then desalted on Pierce's 5 ML Kwiksep excellulose plastic desalting columns. The excluded volumes containing RSA or argatroban-C6-RSA were then subjected to BCA microprotein estimation and lyophilization. In addition, these samples were analyzed by LC/MS, sandwich ELISA assays (described above) to measure thrombin binding and immunoblotting.
# [3] = biological target: human serum albumin (HSA) (Homo sapiens, UniProt P02768); experiment: Mass spectrometric analysis of conjugation to HSA (HPLC/ESIMS); details: HSA 5 μM, 100 μM ester, 1 hour, room temperature
# Description: as §1, §2, §3
# [4] = concentration study, 10 μM ester, RSA 4.5 μM, HPLC/ESIMS
# Sequence of rabbit serum albumin (RSA) (P49065 25-608): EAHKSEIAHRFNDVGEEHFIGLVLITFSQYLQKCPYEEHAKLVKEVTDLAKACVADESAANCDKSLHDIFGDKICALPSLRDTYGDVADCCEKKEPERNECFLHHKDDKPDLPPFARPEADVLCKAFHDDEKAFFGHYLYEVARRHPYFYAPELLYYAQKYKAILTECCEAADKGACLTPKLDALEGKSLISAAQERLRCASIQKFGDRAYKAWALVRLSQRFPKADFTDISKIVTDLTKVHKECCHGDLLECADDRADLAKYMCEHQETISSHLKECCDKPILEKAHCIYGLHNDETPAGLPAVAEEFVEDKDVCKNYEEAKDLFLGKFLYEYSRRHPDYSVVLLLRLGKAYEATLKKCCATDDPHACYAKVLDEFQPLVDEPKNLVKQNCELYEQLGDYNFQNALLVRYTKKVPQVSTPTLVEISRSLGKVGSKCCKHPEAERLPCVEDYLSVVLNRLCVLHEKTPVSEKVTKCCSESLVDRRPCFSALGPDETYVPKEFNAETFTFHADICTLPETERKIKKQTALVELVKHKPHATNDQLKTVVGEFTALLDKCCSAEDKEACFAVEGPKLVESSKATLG
# Sequence of human serum albumin (HSA) (P02768 25-609): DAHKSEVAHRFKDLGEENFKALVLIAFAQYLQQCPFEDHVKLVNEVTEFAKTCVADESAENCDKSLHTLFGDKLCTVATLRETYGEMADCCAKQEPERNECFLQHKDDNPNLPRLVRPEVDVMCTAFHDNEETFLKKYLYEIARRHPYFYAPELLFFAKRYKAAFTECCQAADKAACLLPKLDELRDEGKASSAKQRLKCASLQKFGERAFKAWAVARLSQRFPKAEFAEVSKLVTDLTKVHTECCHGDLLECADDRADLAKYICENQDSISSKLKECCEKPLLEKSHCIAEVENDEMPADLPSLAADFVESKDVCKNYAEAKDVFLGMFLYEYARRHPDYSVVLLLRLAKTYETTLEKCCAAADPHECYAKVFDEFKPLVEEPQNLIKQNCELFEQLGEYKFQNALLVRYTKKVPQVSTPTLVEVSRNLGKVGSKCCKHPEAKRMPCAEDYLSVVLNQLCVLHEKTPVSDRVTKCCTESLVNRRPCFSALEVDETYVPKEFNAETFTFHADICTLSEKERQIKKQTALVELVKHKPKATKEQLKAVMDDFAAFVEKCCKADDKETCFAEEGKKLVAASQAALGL
smiles,measurement,setting,value
CC1CNc2c(cccc2S(=O)(=O)NC(CCCN=C(N)N)C(=O)N2CCC(C)CC2C(=O)NCCCCCC(=O)ON2C(=O)CCC2=O)C1 (stereo not shown) [compound YL-015-35],labeled proteins belonging to the glycophorin family,[1]; capture ELISA assay,a portion of the thrombin inhibitor-labeled proteins belong to the glycophorin family of proteins
same,presence of derivatized argatroban molecules on cytosolic proteins,"[1]; rabbit erythrocytes, cytosol fraction",at the limit of detection
same,covalent modification of erythrocyte membrane proteins,"[1]; rabbit erythrocytes, immunoblotting",numerous erythrocyte membrane proteins were covalently modified
same,covalent addition of argatroban derivative molecules per RSA molecule,"[2]; HPLC/ESIMS, RSA 4.5 μM, 100 μM ester, 1 hour, room temperature",1-8 argatroban derivative molecules per RSA molecule
same,covalent addition of argatroban derivative molecules per RSA molecule,"[2]; HPLC/ESIMS, RSA 15 μM, 200 μM ester",1-9 argatroban derivative molecules per RSA molecule
same,covalent addition of argatroban derivative molecules per RSA molecule,"[2]; HPLC/ESIMS, RSA 30 μM, 300 μM ester",1-9 argatroban derivative molecules per RSA molecule
same,average argatroban derivative molecules added per RSA molecule,"[2]; RSA 15 μM, 200 μM ester",5.6 argatroban derivative molecules added per RSA molecule
same,range of argatroban derivative molecules added per RSA molecule,"[2]; RSA 15 μM, 200 μM ester",1-10 argatroban derivative molecules added per RSA molecule
same,average argatroban derivative molecules added per RSA molecule,"[2]; RSA 30 μM, 300 μM ester",5.4 argatroban derivative molecules added per RSA molecule
same,range of argatroban derivative molecules added per RSA molecule,"[2]; RSA 30 μM, 300 μM ester",1-10 argatroban derivative molecules added per RSA molecule
same,argatroban derivative molecules added,"[2]; concentration study, 1 μM ester, RSA 4.5 μM, HPLC/ESIMS",no detectable argatroban derivative molecules
same,argatroban derivative molecules added,[2]; [4],1 argatroban derivative molecule
same,fraction of the RSA molecules to which 1 argatroban derivative molecule is added,[2]; [4],~ 50%
same,major species of RSA molecules,"[2]; concentration study, 15 μM ester, RSA 4.5 μM",majority of RSA molecules are +1
same,argatroban derivative molecules added per RSA molecule,"[2]; concentration study, 15 μM ester, RSA 4.5 μM, HPLC/ESIMS",0-3 argatroban derivative molecules per RSA molecule
same,major species of RSA molecules,"[2]; concentration study, 20 μM ester, RSA 4.5 μM",majority of RSA molecules are +1 and +2
same,argatroban derivative molecules added per RSA molecule,"[2]; concentration study, 20 μM ester, RSA 4.5 μM, HPLC/ESIMS",1-3 argatroban derivative molecules per RSA molecule
same,major species of RSA molecules,"[2]; concentration study, 25 μM ester, RSA 4.5 μM",majority of RSA molecules are +1 and +2
same,argatroban derivative molecules added per RSA molecule,"[2]; concentration study, 25 μM ester, RSA 4.5 μM, HPLC/ESIMS",1-4 argatroban derivative molecules per RSA molecule
same,major species of RSA molecules,"[2]; concentration study, 100 μM ester, RSA 4.5 μM",no major species
same,argatroban derivative molecules added per RSA molecule,"[2]; concentration study, 100 μM ester, RSA 4.5 μM, HPLC/ESIMS",2-10 argatroban derivative molecules per RSA molecule
same,covalent addition of argatroban derivative molecules per HSA molecule,[3],1-8 argatroban derivative molecules per HSA molecule
